“And” between values parts separate entries of the source, which are not always exact repeats. Identical values can stand only once.
Columns and labels:
Format in all cases: cell-based
[1] = tested on: Escherichia coli clinical isolates from U.S. veterans; experiment: Susceptibility testing (broth microdilution or disk diffusion) at VAMCs with population back-calculations
[2] = tested on: extraintestinal Escherichia coli isolates; experiment: Antimicrobial susceptibility testing (CLSI breakpoints), Olmsted County isolates
[3] = tested on: Escherichia coli clinical isolates (ESBL-positive and ESBL-negative; ST131 subclones); experiment: Broth microdilution antimicrobial susceptibility, NorthShore ESBL case-control isolates
From the text: As reported elsewhere, the 267 E. coli study isolates were collected between 2007 and 2010 as part of a prospective case-control study conducted at NorthShore University HealthSystem (Banerjee, R J et al. “Predictors and molecular epidemiology of community-onset extended-spectrum beta-lactamase (ESBL) Escherichia coli infection in a Midwestern community,” 2013 Infect Control Hosp Epidemiol; in press). Cases were defined as adults with ESBL-producing E. coli cultured from any specimen type. Controls were defined as the 1 or 2 patients with non-ESBL E. coli isolates identified just subsequent to the case isolate, and with the same specimen type and location of collection. Isolates obtained in the outpatient setting or within 48 hours of hospital admission were considered causes of community-associated infection. Further study details are as described (Banerjee, R J et al. “Predictors and molecular epidemiology of community-onset extended-spectrum beta-lactamase (ESBL) Escherichia coli infection in a Midwestern community,” 2013 Infect Control Hosp Epidemiol; in press).
The resistance score was the total number of agents to which an isolate was resistant. This study was approved by the NorthShore and VA Medical Center institutional review boards.

For trimethoprim-sulfamethoxazole [TMP/SMX], the “Prevalence of resistance, H30 ST131” value ([1]; H30 ST131 subclone isolates (H30 subclone vs. others)) was 47, the “Prevalence of resistance, ST131” value ([1]; ST131 isolates (ST131 vs. others)) was 42 and the “Prevalence of resistance, Total (%)” value ([1]; all isolates) was 22%. For the same substance, the “Prevalence of resistance, Others (%)” value ([1]; all non-H30 isolates (H30 subclone vs. others)) was 14%, the “Prevalence of resistance, Others (%)” value ([1]; all non-ST131 isolates (ST131 vs. others)) was 13% and the “ST131's overall contribution to antimicrobial resistance within the source E. coli population” value ([1]; back-calculations, listed as TMP-SMZ) was > 50% and 56%. For the same substance, the “Estimated fraction due to ST131” value ([1]; fraction of resistance phenotype due to ST131) was “.56”, the “Overall prevalence in population, %” value ([1]; resistance phenotype, back-calculated with 29% FQ resistance) was 22% and the “Prevalence ratio of resistance” value ([1]; resistance prevalence among H30 ST131 subclone isolates relative to all other isolates) was 3.3. For the same substance, the “Prevalence ratio of resistance” value ([1]; resistance prevalence among ST131 isolates relative to all other isolates) was 2.4, the “No. of resistant isolates (column %)” value ([2]; All isolates, N = 299) was 88 (29) and the “Resistance prevalence among H30 ST131” value ([2]; H30 ST131 subclone, N = 70) was 47%. The “No. of resistant isolates (column %)” value ([2]; Other STs, N = 129) was 37 (29), the “No. of resistant isolates (column %)” value ([2]; ST9, N = 32) was 2 (6) and the “No. of resistant isolates (column %)” value ([2]; ST69, N = 15) was 8 (53). The “Prevalence of resistance, ST69” value ([2]; ST69 isolates) was 53%, the “No. of resistant isolates (column %)” value ([2]; ST73, N = 25) was 3 (12) and the “No. of resistant isolates (column %)” value ([2]; ST127, N = 18) was 1 (6). The “No. of resistant isolates (column %)” value ([2]; ST131, N = 80) was 37 (46), the “Prevalence of resistance, ST131” value ([2]; ST131 isolates) was 46% and the “Resistance prevalence among non-H30 ST131” value ([2]; non-H30 ST131, N = 10) was 40%. The “No. resistant (column %)” value ([3]; ESBL-negative isolates, All N = 167) was 31 (19), the “No. resistant (column %)” value ([3]; ESBL-negative isolates, Non-ST131 N = 145) was 18 (12) and the “No. resistant (column %)” value ([3]; ESBL-negative isolates, ST131 N = 22) was 13 (59). For the same substance, the “No. resistant (column %)” value ([3]; ESBL-positive isolates, All N = 100) was 63 (63), the “No. resistant (column %)” value ([3]; ESBL-positive isolates, Non-ST131 N = 51) was 39 (76) and the “No. resistant (column %)” value ([3]; ESBL-positive isolates, ST131 N = 49) was 24 (49). For the same substance, the “No. of resistant isolates (column %), H30-Rx (N = 47)” value ([3]; H30-Rx subclone isolates (N = 47) within the H30 ST131 subclone) was 21 (45) No. (column %), the “No. of resistant isolates (column %), H30, non-Rx (N = 15)” value ([3]; H30 non-Rx isolates (N = 15) within the H30 ST131 subclone) was 10 (67) No. (column %) and the “No. of resistant isolates (column %), H30 (N = 62)” value ([3]; H30 subclone isolates (N = 62) among 71 E. coli ST131 isolates) was 31 (50) No. (column %). For the same substance, the “No. of resistant isolates (column %), Non-H30 (N = 9)” value ([3]; non-H30 isolates (N = 9) among 71 E. coli ST131 isolates) was 6 (67) No. (column %).
